Laboratory results published in the NIST ThermoML archive (doi:10.1016/j.jct.2013.04.022).
Numbers after ± are expanded uncertainties.

How the values were obtained:
[1] = 298.15 K, 85.9 kPa, Liquid; for viscosity: Capillary tube (Ostwald / Ubbelohde) method; for mass density: Vibrating tube method
[2] = refractive index (Na D-line) (dimensionless); conditions: 298.15 K; 85.9 kPa; Liquid; Standard Abbe refractometry
[3] = mn = molality of the nth substance listed, in mol/kg; conditions: 298.15 K, 85.9 kPa, Liquid; for viscosity: Capillary tube (Ostwald / Ubbelohde) method; for mass density: Vibrating tube method

C[S+](C)[O-] [dimethyl sulfoxide]
Conditions	mass density [kg/m3]	refractive index	viscosity [mPa·s]
[1]	1095.29 ± 0.4	–	1.867 ± 0.04
[2]	–	1.4762 ± 0.0007	–

Oc1ccccc1C=Nc1ccccc1N=Cc1ccccc1O [2,2'-[1,2-phenylenebis(nitrilomethylidyne)]bis-phenol] + CC(=O)N(C)C
[3]
Conditions	mass density [kg/m3]	viscosity [mPa·s]
m1 = 0.0106	937.33 ± 0.21	0.954 ± 0.02
m1 = 0.0323	938.87 ± 0.21	0.975 ± 0.021
m1 = 0.0497	940.11 ± 0.21	0.992 ± 0.021
m1 = 0.0704	941.6 ± 0.2	1.012 ± 0.022
m1 = 0.0899	942.99 ± 0.2	1.031 ± 0.022
m1 = 0.1092	944.36 ± 0.2	1.049 ± 0.022
m1 = 0.129	945.78 ± 0.2	1.069 ± 0.023
m1 = 0.1492	947.22 ± 0.2	1.087 ± 0.023
m1 = 0.174	949.06 ± 0.2	–
m1 = 0.1742	–	1.011 ± 0.1

CC(=O)N(C)C [N,N-dimethylethanamide]
Conditions	mass density [kg/m3]	refractive index	viscosity [mPa·s]
[1]	936.57 ± 0.3	–	0.961 ± 0.021
[2]	–	1.436 ± 0.0007	–

Oc1ccccc1C=Nc1ccccc1N=Cc1ccccc1O [2,2'-[1,2-phenylenebis(nitrilomethylidyne)]bis-phenol] + C[S+](C)[O-]
[3]
Conditions	mass density [kg/m3]	viscosity [mPa·s]
m1 = 0.0099	1095.61 ± 0.27	1.998 ± 0.043
m1 = 0.0307	1096.3 ± 0.27	2.041 ± 0.044
m1 = 0.0493	1096.92 ± 0.27	2.073 ± 0.044
m1 = 0.07	1097.62 ± 0.27	2.109 ± 0.045
m1 = 0.0911	1098.35 ± 0.27	2.151 ± 0.046
m1 = 0.1086	1098.95 ± 0.27	2.208 ± 0.047
m1 = 0.1311	1099.71 ± 0.27	2.229 ± 0.048
m1 = 0.1483	1100.31 ± 0.27	2.289 ± 0.049
m1 = 0.1717	1101.2 ± 0.27	2.333 ± 0.05

CCCCn1cc[n+](C)c1.[Br-] [1-butyl-3-methylimidazolium bromide] + C[S+](C)[O-]
[3]
Conditions	mass density [kg/m3]
m1 = 0.0751	1099.03 ± 0.27
m1 = 0.0981	1099.68 ± 0.27
m1 = 0.1923	1103.73 ± 0.27

CCCCn1cc[n+](C)c1.[Br-] [1-butyl-3-methylimidazolium bromide] + CC(=O)N(C)C
[3]
Conditions	mass density [kg/m3]
m1 = 0.0527	944.36 ± 0.21
m1 = 0.1475	946.97 ± 0.2
m1 = 0.1994	950.03 ± 0.2
